Source: patent US11377442B2, “Small molecule agonists and antagonists of NR2F6 activity” (ZANDER THERAPEUTICS, INC., priority 2016, dated 2022)
Several values for one entry are separate records, joined by “and”; a condition that tells them apart may be missing. Identical values can stand only once. Like-named read-outs stand apart in the source and are kept apart here.

Experiments:
Assay type in all cases: cell-based
[1] = target: T1, NR2F6 (Homo sapiens, UniProt P10588); test: NR2F6 agonist screening, Firefly signal cmpd/DMSO
T1 construct: expressed in transfected cells; also transient transfection
T1 sequence (P10588 1-404): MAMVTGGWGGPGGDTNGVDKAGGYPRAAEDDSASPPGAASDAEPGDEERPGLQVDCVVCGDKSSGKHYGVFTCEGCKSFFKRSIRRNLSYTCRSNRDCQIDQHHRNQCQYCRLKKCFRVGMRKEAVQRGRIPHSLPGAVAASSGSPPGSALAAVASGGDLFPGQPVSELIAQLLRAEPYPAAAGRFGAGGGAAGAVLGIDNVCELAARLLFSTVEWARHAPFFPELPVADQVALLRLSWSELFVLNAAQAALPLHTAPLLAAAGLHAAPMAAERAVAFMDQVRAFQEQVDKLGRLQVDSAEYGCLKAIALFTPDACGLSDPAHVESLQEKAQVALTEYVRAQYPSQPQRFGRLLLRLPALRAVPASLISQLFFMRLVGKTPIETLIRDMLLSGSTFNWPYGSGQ

[2] = test system: Renilla; test: Renilla signal in NR2F6 agonist screening, cmpd/DMSO; settings: Renilla
[3] = test system: HEK293 pGL4; test: Firefly_pGL signal, cmpd/DMSO (pGL4 control cells); settings: Homo sapiens
[4] = target: T2, NR2F6 LBD (Homo sapiens, UniProt P10588); test: NR2F6 LBD transient transfection
T2 construct: expressed in transfected cells
T2 sequence (P10588 165-393 limits assumed): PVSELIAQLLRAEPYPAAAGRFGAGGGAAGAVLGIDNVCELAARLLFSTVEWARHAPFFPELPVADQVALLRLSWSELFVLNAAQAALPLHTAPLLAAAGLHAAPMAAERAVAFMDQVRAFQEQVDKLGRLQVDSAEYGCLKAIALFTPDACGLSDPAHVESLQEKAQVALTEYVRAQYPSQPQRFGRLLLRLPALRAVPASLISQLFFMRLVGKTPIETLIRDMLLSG
Summary of the method: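 LBD-transfected cells treated at 40, 10, 2 and 0.5 μM (4 replicates); cytotoxicity measured in parallel, normalized to DMSO (0%) and zero signal (100%). Higher concentrations excluded where signal loss reflected toxicity.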

[5] = test system: Renilla; test: Renilla signal, LBD, cmpd/DMSO (NR2F6 LBD transfected cells)
[6] = read-out: Renilla F4, cmpd/DMSO (mean)
[7] = F4, read-out: Renilla, F4, cmpd/DMSO (mean)
[8] = F4, 1% FBS, read-out: Renilla, F4, 1% FBS, cmpd/DMSO (mean)
[9] = F4, 10% FBS, read-out: Renilla, F4, 10% FBS, cmpd/DMSO (mean)

For CC(C)CCN[C@H]1CS(=O)(=O)C[C@@H]1S(=O)(=O)c1ccc(Cl)cc1 [Compound D131], which “Firefly F4, cmpd/DMSO (mean)” value ([1]; 0.5 uM) is on record?
Its value is 1.3.

What about the “Firefly F4, cmpd/DMSO (mean)” value ([1]; 0.5 uM, F4) of the same compound?
Its value is 1.4.

What about the “Firefly F4, cmpd/DMSO (mean)” value ([1]; 2 uM) of the same compound?
The value was 1.4.

What about the “Firefly F4, cmpd/DMSO (mean)” value ([1]; 2 uM, F4) of the same compound?
The value was 1.9.

What about the “Firefly F4, cmpd/DMSO (mean)” value ([1]; 10 uM) of the same compound?
The value was 4.3.

And the “Firefly F4, cmpd/DMSO (mean)” value ([1]; 10 uM, F4)?
Its value is 4.1.

And the “Firefly F4, cmpd/DMSO (mean)” value ([1]; 40 uM)?
Its value is 0.9.

What about the “Firefly F4, cmpd/DMSO (mean)” value ([1]; 40 uM, F4) of the same compound?
Its value is 2.3.

And the “F4, Firefly/Renilla for S/B(F4) > 3” value ([1]; 1% FBS, 10 uM)?
Its value is 2.7 and 2.1.

And the “F4, Firefly/Renilla for S/B(F4) > 3” value ([1]; 10% FBS, 10 uM)?
The value was 2.2.

And the “Firefly, F4/pGL4 for S/B(F4) > 3” value ([1]; 10% FBS, 10 uM)?
The value was 2.2.

And the “F4, Firefly/Renilla for S/B(F4) > 3” value ([1]; 10% FBS, 40 uM)?
Its value is 1.4 and 2.5.

And the “Firefly, F4/pGL4 for S/B(F4) > 3” value ([1]; 10% FBS, 40 uM)?
The value was 2.3 and 2.1.

What about the “Firefly, F4, 1% FBS, cmpd/DMSO (mean)” value ([1]; F4, 1% FBS, 0.5 uM) of the same compound?
Its value is 0.8 and 0.9.

What about the “Firefly, F4, 1% FBS, cmpd/DMSO (mean)” value ([1]; F4, 1% FBS, 2 uM) of the same compound?
Its value is 1.5 and 0.9.

What about the “Firefly, F4, 1% FBS, cmpd/DMSO (mean)” value ([1]; F4, 1% FBS, 10 uM) of the same compound?
The value was 5.4 and 3.6.

What about the “Firefly, F4, 1% FBS, cmpd/DMSO (mean)” value ([1]; F4, 1% FBS, 40 uM) of the same compound?
The value was 0.8 and 0.7.

And the “Firefly, F4, 10% FBS, cmpd/DMSO (mean)” value ([1]; F4, 10% FBS, 2 uM)?
Its value is 1.1.

And the “Firefly, F4, 10% FBS, cmpd/DMSO (mean)” value ([1]; F4, 10% FBS, 10 uM)?
The value was 4.1 and 2.3.

And the “Firefly, F4, 10% FBS, cmpd/DMSO (mean)” value ([1]; F4, 10% FBS, 40 uM)?
Its value is 4.2 and 6.2.

What about the fold induction at 0.5 µM [2, 6] of the same compound?
Its fold induction at 0.5 µM is 1.

And the fold induction at 2 µM [2, 6]?
The fold induction at 2 µM was 1.

And the fold induction at 10 µM [2, 6]?
Its fold induction at 10 µM is 1.9.

What about the fold induction at 40 µM [2, 6] of the same compound?
Its fold induction at 40 µM is 0.3.

And the fold induction at 0.5 µM [2, 7]?
The fold induction at 0.5 µM was 1.1.

And the fold induction at 2 µM [2, 7]?
The fold induction at 2 µM was 1.2.

What about the fold induction at 10 µM [2, 7] of the same compound?
Its fold induction at 10 µM is 1.6.

What about the fold induction at 40 µM [2, 7] of the same compound?
Its fold induction at 40 µM is 1.8.

And the fold induction at 0.5 µM [2, 8]?
The fold induction at 0.5 µM was 1.

And the fold induction at 2 µM [2, 8]?
The fold induction at 2 µM was 1.3.

What about the fold induction at 10 µM [2, 8] of the same compound?
The fold induction at 10 µM was 2.

And the fold induction at 40 µM [2, 8]?
Its fold induction at 40 µM is 2.

What about the fold induction at 0.5 µM [2, 9] of the same compound?
Its fold induction at 0.5 µM is 1.

And the fold induction at 2 µM [2, 9]?
The fold induction at 2 µM was 1.1.

And the fold induction at 10 µM [2, 9]?
The fold induction at 10 µM was 1.8.

And the fold induction at 40 µM [2, 9]?
Its fold induction at 40 µM is 3.

And the fold induction at 0.5 µM ([3]; HEK293, 0.5 uM, pGL4, read-out: Firefly pGL4, cmpd/DMSO (mean))?
The fold induction at 0.5 µM was 1.1.

And the fold induction at 0.5 µM ([3]; HEK293, 0.5 uM, read-out: Firefly pGL4, cmpd/DMSO (mean))?
Its fold induction at 0.5 µM is 1.

And the fold induction at 2 µM ([3]; HEK293, 2 uM, pGL4, read-out: Firefly pGL4, cmpd/DMSO (mean))?
Its fold induction at 2 µM is 1.5.

What about the fold induction at 2 µM ([3]; HEK293, 2 uM, read-out: Firefly pGL4, cmpd/DMSO (mean)) of the same compound?
Its fold induction at 2 µM is 1.3.

And the fold induction at 10 µM ([3]; HEK293, 10 uM, pGL4, read-out: Firefly pGL4, cmpd/DMSO (mean))?
Its fold induction at 10 µM is 2.7.

What about the fold induction at 10 µM ([3]; HEK293, 10 uM, read-out: Firefly pGL4, cmpd/DMSO (mean)) of the same compound?
The fold induction at 10 µM was 2.3.

What about the fold induction at 40 µM ([3]; HEK293, 40 uM, pGL4, read-out: Firefly pGL4, cmpd/DMSO (mean)) of the same compound?
The fold induction at 40 µM was 0.5.

And the fold induction at 40 µM ([3]; HEK293, 40 uM, read-out: Firefly pGL4, cmpd/DMSO (mean))?
The fold induction at 40 µM was 1.

What about the fold induction at 0.5 µM ([3]; HEK293, pGL4, 1% FBS, 0.5 uM, read-out: Firefly, pGL4, 1% FBS, cmpd/DMSO (mean)) of the same compound?
Its fold induction at 0.5 µM is 1.

What about the fold induction at 2 µM ([3]; HEK293, pGL4, 1% FBS, 2 uM, read-out: Firefly, pGL4, 1% FBS, cmpd/DMSO (mean)) of the same compound?
Its fold induction at 2 µM is 1.1.

And the fold induction at 10 µM ([3]; HEK293, pGL4, 1% FBS, 10 uM, read-out: Firefly, pGL4, 1% FBS, cmpd/DMSO (mean))?
The fold induction at 10 µM was 1.7.

And the fold induction at 40 µM ([3]; HEK293, pGL4, 1% FBS, 40 uM, read-out: Firefly, pGL4, 1% FBS, cmpd/DMSO (mean))?
The fold induction at 40 µM was 0.9.

What about the fold induction at 0.5 µM ([3]; HEK293, pGL4, 10% FBS, 0.5 uM, read-out: Firefly, pGL4, 10% FBS, cmpd/DMSO (mean)) of the same compound?
Its fold induction at 0.5 µM is 1.

And the fold induction at 2 µM ([3]; HEK293, pGL4, 10% FBS, 2 uM, read-out: Firefly, pGL4, 10% FBS, cmpd/DMSO (mean))?
Its fold induction at 2 µM is 1.2.

And the fold induction at 10 µM ([3]; HEK293, pGL4, 10% FBS, 10 uM, read-out: Firefly, pGL4, 10% FBS, cmpd/DMSO (mean))?
Its fold induction at 10 µM is 1.9.

And the fold induction at 40 µM ([3]; HEK293, pGL4, 10% FBS, 40 uM, read-out: Firefly, pGL4, 10% FBS, cmpd/DMSO (mean))?
The fold induction at 40 µM was 1.8.

And the “Firefly LBD, cmpd/DMSO (mean)” value ([4]; 0.5 uM)?
The value was 0.8.

And the “Firefly LBD, cmpd/DMSO (mean)” value ([4]; 0.5 uM, LBD)?
The value was 1.3.

What about the “Firefly LBD, cmpd/DMSO (mean)” value ([4]; 2 uM) of the same compound?
Its value is 1.7.

What about the “Firefly LBD, cmpd/DMSO (mean)” value ([4]; 2 uM, LBD) of the same compound?
Its value is 2.0.

What about the “Firefly LBD, cmpd/DMSO (mean)” value ([4]; 10 uM) of the same compound?
Its value is 4.3.

What about the “Firefly LBD, cmpd/DMSO (mean)” value ([4]; 10 uM, LBD) of the same compound?
Its value is 3.6.

And the “Firefly LBD, cmpd/DMSO (mean)” value ([4]; 40 uM)?
The value was 0.5.

What about the “Firefly LBD, cmpd/DMSO (mean)” value ([4]; 40 uM, LBD) of the same compound?
The value was 0.7.

And the “Renilla LBD, cmpd/DMSO (mean)” value ([5]; 0.5 uM)?
Its value is 1.1.

What about the “Renilla LBD, cmpd/DMSO (mean)” value ([5]; 2 uM) of the same compound?
Its value is 1.1.

What about the “Renilla LBD, cmpd/DMSO (mean)” value ([5]; 10 uM) of the same compound?
Its value is 0.8.

And the “Renilla LBD, cmpd/DMSO (mean)” value ([5]; 40 uM)?
The value was 0.2.
